From ChEMBL document CHEMBL3885861, “Open TG-GATES”

Species on record: Rattus norvegicus
Experiment: Open TG-GATES - Regimen: Daily Repeat
Assay type: toxicity, organism-based, Sprague-Dawley
Design: regimen Daily Repeat, gender Male, age 6 weeks
Settings: in vivo, po, route gavage; for APTT / Bas / Eos / Fbg / Hb / Ht / Lym / MCH / MCHC / MCV / Mono / Neu / PT / Plat / RBC / Ret / WBC: tissue Blood; for KIDNEY_L / KIDNEY_R / KIDNEY_TOTAL: tissue Kidney; for LIVER: tissue Liver; for A/G / ALP / ALT / AST / BUN / CRE / Ca / Cl / DBIL / GLC / IP / K / LDH / Na / PL / RALB / TBIL / TC / TG / TP / gamma-GTP: tissue Plasma
[1] = 0 mg/kg, 72 h, dose level Control, time 3 day
[2] = 0 mg/kg, […], dose level Control, time 7 day
[3] = 0 mg/kg, […], dose level Control, time 14 day
[4] = 0 mg/kg, […], dose level Control, time 28 day
[5] = 10 mg/kg, 72 h, dose level Low, time 3 day
[6] = 10 mg/kg, […], dose level Low, time 7 day
[7] = 10 mg/kg, […], dose level Low, time 14 day
[8] = 10 mg/kg, […], dose level Low, time 28 day

## Nc1ccc(Cc2ccc(N)cc2)cc1
[1]
  TERMINAL_BW: 240.9 g
  APTT: 13.2 s
  Bas: 0%
  Eos: 1%
  Fbg: 284.6 mg/dL
  Hb: 13.1 g/dL
  Ht: 38.4%
  Lym: 75%
  MCH: 21.1 pg
  MCHC: 34%
  MCV: 62.1 fL
  Mono: 2.8%
  Neu: 20.2%
  PT: 11.7 s
  Plat: 134 x10_4/uL
  RBC: 618.2 x10_4/ul
  Ret: 6.4%
  WBC: 93.3 x10_2/uL
  KIDNEY_L: 1 g
  KIDNEY_R: 1 g
  KIDNEY_TOTAL: 2 g
  LIVER: 11.1 g
  A/G: 0.8
  ALP: 1856.4 IU/L
  ALT: 42 IU/L
  AST: 71.6 IU/L
  BUN: 15.2 mg/dL
  CRE: 0.2 mg/dL
  Ca: 11 mg/dL
  Cl: 105.4 meq/L
  DBIL: 0.018 mg/dL
  GLC: 177.2 mg/dL
  IP: 7.6 mg/dL
  K: 4 meq/L
  LDH: 76.6 IU/L
  Na: 142.8 meq/L
  PL: 139 mg/dL
  RALB: 2.6 g/dL
  TBIL: 0.038 mg/dL
  TC: 75 mg/dL
  TG: 108.2 mg/dL
  TP: 5.8 g/dL
  gamma-GTP: 1 IU/L
[2]
  TERMINAL_BW: 282.7 g
  APTT: 15.2 s
  Bas: 0.2%
  Eos: 0.8%
  Fbg: 277.4 mg/dL
  Hb: 13.6 g/dL
  Ht: 39.5%
  Lym: 75.4%
  MCH: 20.9 pg
  MCHC: 34.5%
  MCV: 60.7 fL
  Mono: 2.2%
  Neu: 20.4%
  PT: 11.4 s
  Plat: 137.3 x10_4/uL
  RBC: 650.6 x10_4/ul
  Ret: 5.3%
  WBC: 99.1 x10_2/uL
  KIDNEY_L: 1.2 g
  KIDNEY_R: 1.1 g
  KIDNEY_TOTAL: 2.3 g
  LIVER: 12.4 g
  A/G: 0.9
  ALP: 1837.2 IU/L
  ALT: 37 IU/L
  AST: 63.8 IU/L
  BUN: 17 mg/dL
  CRE: 0.2 mg/dL
  Ca: 11 mg/dL
  Cl: 106 meq/L
  DBIL: 0.022 mg/dL
  GLC: 177.6 mg/dL
  IP: 6.8 mg/dL
  K: 4.1 meq/L
  LDH: 65.6 IU/L
  Na: 143.2 meq/L
  PL: 138.6 mg/dL
  RALB: 2.7 g/dL
  TBIL: 0.066 mg/dL
  TC: 70.6 mg/dL
  TG: 106 mg/dL
  TP: 5.8 g/dL
  gamma-GTP: 1 IU/L
[3]
  TERMINAL_BW: 342.6 g
  APTT: 14.9 s
  Bas: 0.2%
  Eos: 1%
  Fbg: 273 mg/dL
  Hb: 13.4 g/dL
  Ht: 39%
  Lym: 73.8%
  MCH: 20.2 pg
  MCHC: 34.1%
  MCV: 59.3 fL
  Mono: 2.2%
  Neu: 22.6%
  PT: 11.2 s
  Plat: 158.2 x10_4/uL
  RBC: 661.2 x10_4/ul
  Ret: 7.2%
  WBC: 97.7 x10_2/uL
  KIDNEY_L: 1.3 g
  KIDNEY_R: 1.2 g
  KIDNEY_TOTAL: 2.5 g
  LIVER: 14.8 g
  A/G: 0.8
  ALP: 1483.2 IU/L
  ALT: 36.6 IU/L
  AST: 58.6 IU/L
  BUN: 15.4 mg/dL
  CRE: 0.2 mg/dL
  Ca: 11 mg/dL
  Cl: 104.6 meq/L
  DBIL: 0.022 mg/dL
  GLC: 172.2 mg/dL
  IP: 6.3 mg/dL
  K: 3.9 meq/L
  LDH: 79.4 IU/L
  Na: 143.2 meq/L
  PL: 147 mg/dL
  RALB: 2.7 g/dL
  TBIL: 0.052 mg/dL
  TC: 76.6 mg/dL
  TG: 133.4 mg/dL
  TP: 6.2 g/dL
  gamma-GTP: 1 IU/L
[4]
  TERMINAL_BW: 438.3 g
  APTT: 17.5 s
  Bas: 0.4%
  Eos: 0.8%
  Fbg: 284.2 mg/dL
  Hb: 14.9 g/dL
  Ht: 42.2%
  Lym: 78%
  MCH: 20.2 pg
  MCHC: 35.3%
  MCV: 57.2 fL
  Mono: 2%
  Neu: 17.6%
  PT: 11.9 s
  Plat: 120.3 x10_4/uL
  RBC: 738.4 x10_4/ul
  Ret: 2.2%
  WBC: 122.3 x10_2/uL
  KIDNEY_L: 1.5 g
  KIDNEY_R: 1.4 g
  KIDNEY_TOTAL: 2.9 g
  LIVER: 17.8 g
  A/G: 0.7
  ALP: 1089.4 IU/L
  ALT: 34.4 IU/L
  AST: 56.6 IU/L
  BUN: 15.2 mg/dL
  CRE: 0.2 mg/dL
  Ca: 10.9 mg/dL
  Cl: 105.2 meq/L
  DBIL: 0.02 mg/dL
  GLC: 176.4 mg/dL
  IP: 5.9 mg/dL
  K: 3.7 meq/L
  LDH: 67.6 IU/L
  Na: 144.4 meq/L
  PL: 141.2 mg/dL
  RALB: 2.7 g/dL
  TBIL: 0.058 mg/dL
  TC: 67.8 mg/dL
  TG: 168.2 mg/dL
  TP: 6.4 g/dL
  gamma-GTP: 1 IU/L
[5]
  TERMINAL_BW: 237.7 g
  APTT: 13.9 s
  Bas: 0.2%
  Eos: 0.8%
  Fbg: 280.2 mg/dL
  Hb: 13.3 g/dL
  Ht: 38.9%
  Lym: 75%
  MCH: 21.1 pg
  MCHC: 34.2%
  MCV: 61.5 fL
  Mono: 2.4%
  Neu: 20.8%
  PT: 11.9 s
  Plat: 149.6 x10_4/uL
  RBC: 632.8 x10_4/ul
  Ret: 5.9%
  WBC: 114.1 x10_2/uL
  KIDNEY_L: 1 g
  KIDNEY_R: 1 g
  KIDNEY_TOTAL: 1.9 g
  LIVER: 11.4 g
  A/G: 0.8
  ALP: 1752.4 IU/L
  ALT: 41 IU/L
  AST: 68.6 IU/L
  BUN: 16.2 mg/dL
  CRE: 0.2 mg/dL
  Ca: 10.9 mg/dL
  Cl: 106.6 meq/L
  DBIL: 0.018 mg/dL
  GLC: 181.4 mg/dL
  IP: 7.7 mg/dL
  K: 4.1 meq/L
  LDH: 63 IU/L
  Na: 143.6 meq/L
  PL: 146.2 mg/dL
  RALB: 2.7 g/dL
  TBIL: 0.032 mg/dL
  TC: 78.4 mg/dL
  TG: 114.4 mg/dL
  TP: 6 g/dL
  gamma-GTP: 1 IU/L
[6]
  TERMINAL_BW: 279.3 g
  APTT: 13.6 s
  Bas: 0.2%
  Eos: 0.4%
  Fbg: 279.2 mg/dL
  Hb: 13.4 g/dL
  Ht: 39.2%
  Lym: 69.8%
  MCH: 20.6 pg
  MCHC: 34.1%
  MCV: 60.6 fL
  Mono: 2.8%
  Neu: 26.2%
  PT: 11.3 s
  Plat: 144.1 x10_4/uL
  RBC: 648 x10_4/ul
  Ret: 5.5%
  WBC: 107.7 x10_2/uL
  KIDNEY_L: 1.1 g
  KIDNEY_R: 1.1 g
  KIDNEY_TOTAL: 2.2 g
  LIVER: 13 g
  A/G: 0.8
  ALP: 1642 IU/L
  ALT: 40.8 IU/L
  AST: 65 IU/L
  BUN: 16.8 mg/dL
  CRE: 0.2 mg/dL
  Ca: 11.4 mg/dL
  Cl: 104.6 meq/L
  DBIL: 0.026 mg/dL
  GLC: 182 mg/dL
  IP: 7.2 mg/dL
  K: 4.2 meq/L
  LDH: 60.6 IU/L
  Na: 143.6 meq/L
  PL: 143.8 mg/dL
  RALB: 2.7 g/dL
  TBIL: 0.07 mg/dL
  TC: 75.4 mg/dL
  TG: 105.6 mg/dL
  TP: 6 g/dL
  gamma-GTP: 1.4 IU/L
[7]
  TERMINAL_BW: 335.7 g
  APTT: 15.6 s
  Bas: 0%
  Eos: 0.8%
  Fbg: 283.8 mg/dL
  Hb: 14.1 g/dL
  Ht: 40.9%
  Lym: 78%
  MCH: 20.6 pg
  MCHC: 34.6%
  MCV: 59.5 fL
  Mono: 1.8%
  Neu: 19%
  PT: 11.5 s
  Plat: 146.2 x10_4/uL
  RBC: 687 x10_4/ul
  Ret: 4.3%
  WBC: 125.5 x10_2/uL
  KIDNEY_L: 1.2 g
  KIDNEY_R: 1.2 g
  KIDNEY_TOTAL: 2.3 g
  LIVER: 15.9 g
  A/G: 0.8
  ALP: 1500.2 IU/L
  ALT: 38.8 IU/L
  AST: 64.6 IU/L
  BUN: 17 mg/dL
  CRE: 0.2 mg/dL
  Ca: 11.1 mg/dL
  Cl: 104.8 meq/L
  DBIL: 0.02 mg/dL
  GLC: 174.4 mg/dL
  IP: 7.1 mg/dL
  K: 3.8 meq/L
  LDH: 72.4 IU/L
  Na: 143.2 meq/L
  PL: 146.4 mg/dL
  RALB: 2.7 g/dL
  TBIL: 0.05 mg/dL
  TC: 70.4 mg/dL
  TG: 145 mg/dL
  TP: 6.2 g/dL
  gamma-GTP: 1 IU/L
[8]
  TERMINAL_BW: 440.9 g
  APTT: 16.1 s
  Bas: 0.2%
  Eos: 1%
  Fbg: 270.4 mg/dL
  Hb: 14.7 g/dL
  Ht: 41.8%
  Lym: 77.6%
  MCH: 19.6 pg
  MCHC: 35.1%
  MCV: 55.7 fL
  Mono: 1.4%
  Neu: 19.2%
  PT: 11.9 s
  Plat: 114.6 x10_4/uL
  RBC: 750.8 x10_4/ul
  Ret: 2.7%
  WBC: 114 x10_2/uL
  KIDNEY_L: 1.4 g
  KIDNEY_R: 1.4 g
  KIDNEY_TOTAL: 2.8 g
  LIVER: 17.9 g
  A/G: 0.8
  ALP: 1150 IU/L
  ALT: 34.2 IU/L
  AST: 57.6 IU/L
  BUN: 16 mg/dL
  CRE: 0.2 mg/dL
  Ca: 10.9 mg/dL
  Cl: 105.4 meq/L
  DBIL: 0.02 mg/dL
  GLC: 177.6 mg/dL
  IP: 6.5 mg/dL
  K: 4 meq/L
  LDH: 64 IU/L
  Na: 144.4 meq/L
  PL: 133 mg/dL
  RALB: 2.7 g/dL
  TBIL: 0.056 mg/dL
  TC: 67 mg/dL
  TG: 112.4 mg/dL
  TP: 6.4 g/dL
  gamma-GTP: 1 IU/L
